Measured values published in the supplement of paper PMC10307832.

Legend:
Experiment in all cases: relative viability (nuclei count vs DMSO), 5 days (fraction); higher = more cells survive
[1] = compound: COc1cc2ncn(-c3cc(OCc4ccccc4C(F)(F)F)c(C(N)=O)s3)c2cc1OC + Nc1ncn([C@H]2C[C@H](O)[C@@H](CO)O2)c(=O)n1 [Decitabine] (partner 2 µM)
How it was run: (§1)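 Nuclei were stained with Hoechst during a one-step fixation (final 0.05% Triton X-100, 1% formaldehyde, 1 ug/ml Hoechst) carried out 5 days after dosing, then counted on 4× images. The cells, lung cancer lines in 1536-well plates, had been dosed by pin tool the day after seeding with one drug alone or a fixed anchor-drug dose plus five library-drug doses (not always all listed) in √10 steps. Relative viability is the nuclei count in treated wells divided by that in vehicle wells, and each value is the median of duplicate plates.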

[2] = compound: COc1cc2ncn(-c3cc(OCc4ccccc4C(F)(F)F)c(C(N)=O)s3)c2cc1OC + NC(=O)Nc1cc(-c2cccc(F)c2)sc1C(=O)N[C@H]1CCCNC1 [AZD7762] (partner 0.2 µM)
How it was run: as §1

[3] = compound: COc1cc2ncn(-c3cc(OCc4ccccc4C(F)(F)F)c(C(N)=O)s3)c2cc1OC + CS(=O)(=O)CCNCc1ccc(-c2ccc3ncnc(Nc4ccc(OCc5cccc(F)c5)c(Cl)c4)c3c2)o1 [Lapatinib] (partner 2 µM)
How it was run: as §1

[4] = compound: COc1cc2ncn(-c3cc(OCc4ccccc4C(F)(F)F)c(C(N)=O)s3)c2cc1OC + CC(C)C[C@H](NC(=O)[C@H](Cc1ccccc1)NC(=O)c1cnccn1)B(O)O [Bortezomib] (partner 0.002 µM)
How it was run: as §1

Cell Line	relative viability ([1]; first compound 0.05 µM)	relative viability ([1]; first compound 0.1581 µM)	relative viability ([1]; first compound 0.5 µM)	relative viability ([1]; first compound 1.581 µM)	relative viability ([1]; first compound 5 µM)	relative viability ([2]; first compound 0.05 µM)	relative viability ([2]; first compound 0.1581 µM)	relative viability ([2]; first compound 0.5 µM)	relative viability ([2]; first compound 1.581 µM)	relative viability ([2]; first compound 5 µM)	relative viability ([3]; first compound 0.05 µM)	relative viability ([3]; first compound 0.1581 µM)	relative viability ([3]; first compound 0.5 µM)	relative viability ([3]; first compound 1.581 µM)	relative viability ([3]; first compound 5 µM)	relative viability ([4]; first compound 0.05 µM)	relative viability ([4]; first compound 0.1581 µM)	relative viability ([4]; first compound 0.5 µM)	relative viability ([4]; first compound 1.581 µM)	relative viability ([4]; first compound 5 µM)
201T	0.866	0.877	0.851	0.562	0.251	0.642	0.668	0.554	0.442	0.242	1.04	1.03	1.01	0.708	0.299	1.12	1.13	1.12	0.902	0.365
A549	0.253	0.237	0.212	0.0645	0.0614						0.984	0.862	0.0918	0.0675	0.065					
A-427	0.619	0.6	0.498	0.399	0.205	0.793	0.68	0.682	0.231	0.153	1.02	1.12	1	0.418	0.116	1.05	1.05	0.752	0.258	0.251
ABC-1	1.21	1.18	0.761	0.513	0.357	0.782	0.487	0.741	0.631	1.01	1.18	0.723	1.11	1.14	1.2	0.304	0.294	0.281	0.242	0.233
BEN	0.816	0.828	0.526	0.403	0.408	0.788	0.735	0.678	0.464	0.389	0.696	0.526	0.56	0.256	0.212	0.911	0.476	0.801	0.253	0.244
CAL-12T						0.555	0.598	0.514	0.239	0.199	0.647	0.708	0.379	0.228	0.156	0.944	0.821	0.608	0.242	0.199
COR-L23	0.435	0.394	0.305	0.145	0.159						0.891	1.01	0.798	0.143	0.107	0.937	0.933	0.689	0.126	0.111
COR-L 105	0.65	0.601	0.572	0.438	0.278						0.373	0.365	0.277	0.255	0.292	0.727	0.763	0.529	0.271	0.269
Calu-6											1.02	0.872	0.315	0.129	0.128	0.805	0.69	0.203	0.116	0.117
ChaGo-K-1	0.567	0.504	0.43	0.255	0.162	0.896	0.853	0.882	0.237	0.16						0.98	0.727	1.03	0.427	0.272
EKVX	0.324	0.381	0.273	0.175	0.204	0.841	0.48	0.655	0.416	0.33	0.176	0.265	0.206	0.165	0.178	1.1	0.773	0.991	0.195	0.487
EMC-BAC-2	1.12	1.05	0.963	0.504	0.253	1.18	1.21	1.08	0.357	0.223	0.998	0.944	0.786	0.228	0.216	1.19	1.08	0.925	0.416	0.278
EPLC-272H	0.356	0.362	0.168	0.113	0.133	0.191	0.334	0.247	0.107	0.13	0.976	0.867	0.527	0.111	0.0981	1.05	0.82	0.567	0.0851	0.135
H3255	0.518	0.674	0.625	0.312	0.294	0.946	0.922	0.625	0.395	0.324	0.24	0.261	0.206	0.17	0.149	0.793	0.746	0.708	0.363	0.242
HARA	0.383		0.367	0.202	0.118	0.301		0.201	0.173	0.112	0.74	0.797	0.7	0.169	0.0753	1.09	0.986	1.02	0.215	0.0851
HCC-15	0.592	0.581	0.248	0.176	0.119	1.18	1.05	1.03	0.21	0.154	0.861	0.731	0.602	0.135	0.114	0.99	0.89	0.785	0.142	0.114
HCC-44	0.987	0.984	0.906	0.433	0.258	1.03	1.04	0.991	0.549	0.375	1.06	0.976	0.987	0.0934	0.171	0.949	0.874	0.714	0.127	0.107
IA-LM											0.617	0.49	0.0998	0.083	0.0955	0.747	0.479	0.0694	0.0622	0.0584
LCLC-103H	0.729	0.785	0.657	0.355	0.257	0.75	0.876	0.707	0.375	0.242						1	1.03	0.744	0.522	0.208
LK-2	0.271	0.236	0.133	0.131	0.0977	0.386	0.366	0.202	0.115	0.126	1.01	0.841	0.437	0.217	0.222					
NCI-H358	0.228	0.179	0.219	0.115	0.138	0.541	0.493	0.419	0.193	0.14	0.553	0.435	0.371	0.175	0.145					

Cell Line	relative viability ([1]; first compound 0.05 µM)	relative viability ([1]; first compound 0.1581 µM)	relative viability ([1]; first compound 0.5 µM)	relative viability ([1]; first compound 1.581 µM)	relative viability ([1]; first compound 5 µM)	relative viability ([2]; first compound 0.05 µM)	relative viability ([2]; first compound 0.1581 µM)	relative viability ([2]; first compound 0.5 µM)	relative viability ([2]; first compound 1.581 µM)	relative viability ([2]; first compound 5 µM)	relative viability ([3]; first compound 0.05 µM)	relative viability ([3]; first compound 0.1581 µM)	relative viability ([3]; first compound 0.5 µM)	relative viability ([3]; first compound 1.581 µM)	relative viability ([3]; first compound 5 µM)	relative viability ([4]; first compound 0.05 µM)	relative viability ([4]; first compound 0.1581 µM)	relative viability ([4]; first compound 0.5 µM)	relative viability ([4]; first compound 1.581 µM)	relative viability ([4]; first compound 5 µM)
NCI-H441	0.229	0.243	0.18	0.137	0.164	1.13	0.73	0.437	0.198	0.171						0.565	0.463	0.273	0.154	0.176
NCI-H520	0.482	0.525	0.261	0.217	0.219						1.01	0.814	0.387	0.172	0.149	0.689	0.568	0.25	0.169	0.144
NCI-H522	0.574	0.628	0.54	0.618	0.36	1.01	0.769	0.766	0.461	0.417										
NCI-H661	0.566	0.496	0.363	0.277	0.237						0.431	0.517	0.467	0.18	0.251	0.818	0.819	0.485	0.217	0.257
NCI-H1299											0.984	0.92	0.599	0.314	0.312	0.985	1.01	0.856	0.263	0.675
NCI-H1395	0.736	0.753	0.596	0.373	0.342	0.454	0.396	0.377	0.323	0.316	0.928	1.37	0.818	0.354	0.41					
NCI-H1563											1.04	1.02	0.877	0.748	0.588	0.985	1.01	0.807	0.676	0.592
NCI-H1648	0.473	0.602	0.345	0.235	0.225	0.699	0.721	0.637	0.25	0.214										
NCI-H1650	0.396	0.382	0.329	0.219	0.138						0.789	0.853	0.293	0.196	0.186	0.222	0.184	0.185	0.175	0.172
NCI-H1703						0.141	0.131	0.104	0.119	0.104	1.28	1.44	0.564	0.17	0.235	0.384	0.339	0.172	0.0978	0.173
NCI-H1793	0.244	0.469	0.408	0.223	0.137	0.463	0.407	0.301	0.148	0.103	0.741	0.84	0.409	0.306	0.209					
NCI-H1944	0.468	0.465	0.399	0.235	0.153	0.546	0.545	0.426	0.168	0.0968	0.972	1	0.729	0.165	0.114					
NCI-H2009	0.344	0.301	0.259	0.197	0.17						0.868	0.777	0.318	0.169	0.146	0.965	0.831	0.289	0.149	0.113
NCI-H2023	0.203	0.213	0.159	0.0779	0.0772						0.936	0.975	0.274	0.0863	0.095	0.998	1.24	0.403	0.0876	0.0864
NCI-H2170	0.49	0.458	0.285	0.151	0.166	0.889	0.765	0.306	0.146	0.166	0.262	0.241	0.244	0.221	0.2					
NCI-H2228											1.26	0.998	0.297	0.162	0.251	1.01	0.849	0.208	0.182	0.18
NCI-H2342	0.628	0.701	0.626	0.569	0.528	0.593	0.476	0.374	0.38	0.425										
SK-LU-1	0.663	0.487	0.494	0.317	0.304						0.833	0.842	0.427	0.246	0.197	1.35	1.14	0.745	0.292	0.256
SK-MES-1	0.371	0.393	0.273	0.166	0.172						0.445	0.459	0.482		0.335					
SW 1573	0.572	0.413	0.223	0.0976	0.126						1.14	0.445	0.918	0.217	0.739	0.975	1.2	0.867	0.157	0.565
UMC-11	0.309	0.595	0.265	0.253	0.251						0.991	0.917	0.348	0.195	0.136	0.634	0.596	0.119	0.131	0.0891
